Measurements: patent US20260344670A1, “BIXLOZONE MIXTURES WITH PETHOXAMID” (FMC CORPORATION, priority 2022, published 2026)

What was measured:
Type in all cases: in vivo
Senecio vulgaris (SENVU) = test: pre-emergence control of SENVU in corn (efficacy, Colby synergy); details: bixlozone 375, pethoxamid 800, tank mix 375 + 800, premix 375 + 775 g/ha
Source text: (§1) [formula] • where ppm=milligrams of active ingredient (=a.i.) per liter of spray mixture X=% action by component A using p ppm of active ingredient Y=% action by component B using q ppm of active ingredient. If the ratio R defined as the action actually observed (O) divided by the expected action (E) is >1 then the action of the combination is superadditive, i.e. there is a synergistic effect. For a more detailed description of the Colby formula, see Colby, S. R. “Calculating Synergistic and Antagonistic Responses of Herbicide Combination”, Weeds, Vol. 15, pages 20-22; 1967; see also Limpel et al., Proc. NEWCC 16:48-53 (1962).
(§2) As used herein, rating timings correspond to the following: A1=weed assessment at BBCH 11-12; A2=4 weeks after the application; A3=when ZEAMX crop reaches BBCH 18 (row closure); and A4=BBCH 51-59 of the ZEAMX crop.
(§3) The herbicidal compounds bixlozone and pethoxamid were applied in a variety of forms and at a variety of amounts, application rates, and normalities. Efficacy of the herbicidal compositions was evaluated with reference to a scale of 0% to 100% in comparison with untreated control plots. 0 means no damage to the harmful plants and 100 means complete destruction of the harmful plants. Plants per square meter is indicated by “pl/m^2”, and grams per hectare is indicated by “g/ha”. […]

POAAN = test: pre-emergence control of POAAN in corn (efficacy, Colby synergy); details: bixlozone 375, pethoxamid 300, mixtures 375 + 300 g/ha
Source text: (§4) Table 11. Synergy data of various forms and mixtures of bixlozone and pethoxamid after pre-emergence application on corn at the crop row closure stage (BBCH 18). The notations in parentheses show the forms and amounts (in g/ha) of applied bixlozone and pethoxamid, respectively. Where “tank” is noted, the mix is a tank mix. Where “premix” is noted, the mix is a premix. Where there is no notation, the value shown is the Colby calculation for the expected value from separate mixtures.
Various forms, compositions, and mixtures of bixlozone and pethoxamid were applied to corn before emergence. […] Mixtures of bixlozone with 300 g/ha pethoxamid improved weed spectrum on a range of broad leaf weeds (e.g., SOLNI and ABUTH). Combinations of bixlozone and pethoxamid in pre-emergence applications were very safe with no clear pethoxamid rate effect.
Table 13. Efficacies of various forms and mixtures of bixlozone and pethoxamid after pre-emergence application on corn. Weeds were present at ≥5 pl/m^2. Concentrations are shown in parentheses in g/ha.
Various forms, compositions, and mixtures of bixlozone and pethoxamid were applied to corn before emergence. […] There was equivalent efficacy for fixed rate of bixlozone combined with pethoxamid: 1200 or 900 g/ha. Efficacy was reduced when bixlozone rate decreased from 250 to 150 g/ha.
Table 14. […]

[1] = tested on: Lolium multiflorum (LOLMU); test: pre-emergence control of LOLMU in corn (Colby synergy); details: bixlozone 375, pethoxamid 1200, mixtures 375 + 1200 g/ha
Source text: as §1, §3

POLHY = test: pre-emergence control of POLHY in corn (efficacy); details: bixlozone 375, pethoxamid 800, tank mix 375 + 800, premix 375 + 775 g/ha
Source text: (§5) Various forms, compositions, and mixtures of bixlozone and pethoxamid were applied to corn before emergence. […] Mixtures of bixlozone with 800 g/ha pethoxamid improved weed spectrum on a range of broad leaf weeds (e.g., CHEAL and ABUTH) and grasses (e.g., ECHCG, DIGSA, and SETVI). Combinations of bixlozone and pethoxamid in pre-emergence applications were very safe with no clear pethoxamid rate effect.
(§6) Table 12. Efficacies of various forms and mixtures of bixlozone and pethoxamid after pre-emergence application on corn. Weeds were present at ≥5 pl/m^2. Concentrations are shown in parentheses in g/ha.

CAGSE = test: pre-emergence control of CAGSE in corn (efficacy, Colby synergy)
Source text: (§7) Various forms, compositions, and mixtures of bixlozone and pethoxamid were applied to corn before emergence. […] Mixtures of bixlozone with 1200 g/ha pethoxamid improved weed spectrum on a range of broad leaf weeds (e.g., CHEAL, MATSS, and POLSS) and grasses (e.g., ECHCG, DIGSA, and SETVI). Combinations of bixlozone and pethoxamid in pre-emergence applications were very safe with no clear pethoxamid rate effect.
(§8) Table 8. Efficacies of various forms and mixtures of bixlozone and pethoxamid after pre-emergence application on corn. Weeds were present at ≥5 pl/m^2. Concentrations are shown in parentheses in g/ha.
as §4
(§9) Various forms, compositions, and mixtures of bixlozone and pethoxamid were applied to corn before emergence. […] Mixtures of bixlozone with 300 g/ha pethoxamid improved weed spectrum on a range of broad leaf weeds (e.g., SOLNI and ABUTH). […]

[2] = tested on: Mercurialis annua (MERAN); test: pre-emergence control of MERAN in corn (efficacy, Colby synergy)
Source text: as §1, §2
(§10) The herbicidal compounds bixlozone and pethoxamid were applied in a variety of forms and at a variety of amounts, application rates, and normalities. Efficacy of the herbicidal compositions was evaluated with reference to a scale of 0% to 100% in comparison with untreated control plots. 0 means no damage to the harmful plants and 100 means complete destruction of the harmful plants. Plants per square meter is indicated by “pl/m^2”, and grams per hectare is indicated by “g/ha”. The acronym “EC” means emulsifiable concentrate (a liquid, homogenous formulation to be applied as an emulsion after dilution with water); “SC” means suspension concentrate (a stable suspension of active ingredient(s) with water as the fluid); “ZC” refers to a mixed formulation of CS and SC (a stable suspension of capsules and active ingredient(s) in a fluid, normally intended for dilution with water before use).
(§11) Various forms, compositions, and mixtures of bixlozone and pethoxamid were applied to corn before emergence. […] There was equivalent efficacy for fixed rate of bixlozone combined with pethoxamid: 1200 or 900 g/ha. Efficacy was reduced when bixlozone rate decreased from 250 to 150 g/ha. […]

[3] = tested on: Amaranthus retroflexus (AMARE); test: pre-emergence control of AMARE in corn (efficacy, Colby synergy)
Source text: as §1, §2, §3

[4] = tested on: Chenopodium album (CHEAL); test: pre-emergence control of CHEAL in corn (efficacy, Colby synergy)
Source text: as §1, §2, §10, §11

AMBEL = test: pre-emergence control of AMBEL in corn (efficacy); details: bixlozone 375, pethoxamid 1200, mixtures 375 + 1200 g/ha
Source text: as §7, §8

Stellaria media (STEME) = test: pre-emergence control of STEME in corn (efficacy, Colby synergy); details: bixlozone 375, pethoxamid 800, tank mix 375 + 800, premix 375 + 775 g/ha
Source text: as §1, §2, §3

[5] = tested on: Persicaria maculosa (POLPE); test: pre-emergence control of POLPE in corn (efficacy, Colby synergy)
Source text: as §1, §2, §10, §11

[6] = tested on: Portulaca oleracea (POROL); test: pre-emergence control of POROL in corn (Colby synergy)
Source text: as §1, §10, §7

[7] = tested on: Panicum dichotomiflorum (PANDI); test: pre-emergence control of PANDI in corn (Colby synergy)
Source text: as §1, §10, §7

[8] = tested on: Acalypha virginica (ACCVI); test: pre-emergence control of ACCVI in corn (Colby synergy)
Source text: as §1, §3

[9] = tested on: Chenopodium hybridum (CHEHY); test: pre-emergence control of CHEHY in corn (efficacy, Colby synergy); details: bixlozone 375, pethoxamid 300, mixtures 375 + 300 g/ha
Source text: as §1, §2, §3

VERPE = test: pre-emergence control of VERPE in corn (efficacy, Colby synergy)
Source text: as §4, §5, §6, §9

[10] = tested on: Abutilon theophrasti (ABUTH); test: pre-emergence control of ABUTH in corn (efficacy, Colby synergy)
Source text: as §1, §2, §10, §11

[11] = bixlozone 375, pethoxamid 300, mixtures 375 + 300 g/ha
[12] = bixlozone 375, pethoxamid 1200, mixtures 375 + 1200 g/ha
[13] = bixlozone 375, pethoxamid 800, tank mix 375 + 800, premix 375 + 775 g/ha

SMILES: CCOCCN(C(=O)CCl)C(=C(C)C)c1ccccc1 [pethoxamid]
- Efficacy (Senecio vulgaris (SENVU)): 13.8
- Efficacy (POAAN): 7.5
- Efficacy [1]: 78.8
- Efficacy (POLHY): 92.5
- Efficacy (CAGSE; [11]): 10
- Efficacy (CAGSE; [12]): 0
- Efficacy [2, 11]: 36.3
- Efficacy [2, 13]: 16.9
- Efficacy [2, 12]: 48.6
- Efficacy [3, 13]: 50.4
- Efficacy [3, 12]: 57.5
- Efficacy [4, 11]: 35.7
- Efficacy [4, 13]: 66.6
- Efficacy [4, 12]: 72.2
- Efficacy (AMBEL): 7.5
- Efficacy (Stellaria media (STEME)): 91
- Efficacy [5, 11]: 45.5
- Efficacy [5, 13]: 61.8
- Efficacy [5, 12]: 62.5
- Efficacy [6, 11]: 48.8
- Efficacy [6, 13]: 98.8
- Efficacy [6, 12]: 94.6
- Efficacy [7, 11]: 68.8
- Efficacy [7, 13]: 71.3
- Efficacy [7, 12]: 84.8
- Efficacy [8, 11]: 65
- Efficacy [8, 12]: 46.3
- Efficacy [9]: 0
- Efficacy (VERPE; [11]): 46.3
- Efficacy (VERPE; [13]): 54.4
- Efficacy [10, 11]: 42.5
- Efficacy [10, 13]: 38.9
- Efficacy [10, 12]: 56.3
